7 molecules from US9879243B2, “Culture medium for cell growth and transfection” (LIFE TECHNOLOGIES CORPORATION, priority 2001, dated 2018) can be followed below.

Experiment [1] relates to 293 cells. Nature of the experiment: Effect of replacement compounds on the growth of 293 cells in 293 SFM without transferrin, three passages. Conditions: third passage. Format: cell-based, human.
Experiment [2] deals with 293 cells. Kind of experiment: β-galactosidase expression after transfection (pCMV-SPORT-β-gal, LIPOFECTAMINE 2000) of 293 cells in monolayer culture, 24-well plates. Format: cell-based, human. The following applies: Table 8, replacement compounds 25 μM in test media, 24 hrs post-transfection. Here is the method:
When cultured in suspension, cells were split to 3×10^5 viable cells per ml at each passage. On the week of transfection cells were seeded at 3×10^5 viable cells per ml. After ˜48 hrs of growth (day 2) cells were vortexed for 30 seconds and counted and appropriate volumes used for transfection as described in procedures below.
In addition, the base media comprises 2.4 g/L NaHCO3, 2.98 g/L Hepes, 4 mM L-glutamine and 3 ml/L PLURONIC F-68 (Invitrogen Corp., Carlsbad, Calif.).
The osmolarity is adjusted to from about 275-310 mOsm, preferably about 280 mOsm and the pH is adjusted to from about 7.0 to about 7.45 preferably about 7.4 respectively.
Three wells were set up for each treatment. A volume of media corresponding to 3×10^6 viable cells was centrifuged. The supernatant was removed and the cells re-suspended in 600 μl test media. Each well of a 24 well plate received 200 μl of the re-suspended cells.
To prepare the nucleic acid for the transfection experiments, 93 μl test media+3 μl DNA+24 μl LIPOFECTAMINE 2000 were combined in a microfuge tube and complexed for 30 minutes. A 40 μl aliquot of complex was added to each well. 250 μl test media was added to each well five hours after addition of complex. The final cell concentration was 1×10^6 viable cells per well; the final DNA concentration was 1 μg per 1×10^6 viable cells and the final LIPOFECTAMINE 2000 concentration was 8 μl per 1×10^6 viable cells.
24 hrs post-transfection, samples were collected for β-galactosidase quantitation. The contents of duplicate wells were pooled (i.e. ˜2×10^6 cells for the assay) for each sample and transferred to a microfuge tube. The cells were centrifuged, the supernatant was removed and the cells were re-suspended in 1 ml of D-PBS. The cells were pelleted a second time and re-suspended in 1 ml of D-PBS. The samples were then stored at −70° C. Prior to the assay for β-galactosidase, samples were freeze-thawed a total of five times.
293 cells were grown in monolayer culture in the presence of the various replacement compounds indicated and transfection experiments performed as described above. The results are shown in Table 8 and the values are β-galactosidase activity expressed as nanograms of β-galactosidase per 2×10^6 cells. A comparison was made between the transfection efficiency of DNA complexes formed in D-MEM medium and DNA complexes formed in test medium. […]
For cells transfected in 24-well plates, cells densities used were 1×10^6 viable cells per well.

Experiment [3] has as its system CHO cells. Kind of experiment: Effect of replacement compounds on the growth of CHO cells in CD CHO medium without transferrin, three passages. In kind it is cell-based, Chinese hamster. Conditions: third passage. Here is the method:
The ability of replacement compounds to support cellular growth in the absence of transferrin was evaluated using CHO cells maintained in CD CHO medium (Invitrogen Corporation, Carlsbad, Calif., the formulation of which is described in WO 98/08934). Stock cultures containing 5 μg/mL human holo-transferrin were prepared in CD CHO medium. For replacement compound evaluation, CHO cells were established in 125 mL shaker flasks at an initial viable seeding density of 1×10^5 cells/mL in a final volume of 20 mL. All cultures were maintained at 37° C. in humidified air containing 8% CO2. To eliminate transferrin carry-over effects, cells were subcultured at 4 day intervals for a total of three passages. Positive control cultures contained 5 μg/mL human holo-transferrin while negative control cultures were established in the absence of either transferrin or replacement compound. Replacement compound stocks were prepared at 0.1M-0.2M in ddH2O and solubilized when necessary using 5N NaOH or HCl. Iron complexes were established using 0.2M replacement compound and iron stocks mixed 1:1 (v/v) and incubated for 5-10 minutes at 22° C. All solutions containing replacement compounds were filter sterilized using a 0.22 μm Millex-GV filter prior to addition to transferrin and serum-free media.
Except where noted, replacement compounds were evaluated either alone or in combination with ferric chloride or ferrous sulfate at 25 μM, 50 μM and 100 μM. Values in the table represent the mean percentage of control growth for duplicate cultures determined at the third passage.
The ability of various replacement compounds to substitute for transferrin in the culture of CHO cells was determined. When added to the medium formulation un-complexed, the replacement compound is listed alone, when added as a complex with a transition metal, the source of the transition metal is listed with the metal binding compound.

Experiment [4] relates to Sp2/0 cells. Kind of experiment: Effect of replacement compounds on the growth of Sp2/0 cells in CD Hybridoma medium without transferrin, three passages. Format: cell-based. The following applies: third passage.
[5] abbreviates: 25 μM, control 5 μg/mL human holo-transferrin, iron equimolar where combined.
[6] abbreviates: 50 μM, control 5 μg/mL human holo-transferrin.
The mark [7] stands for this setting: 100 μM, control 5 μg/mL human holo-transferrin.
Where [8] appears, read: 25 μM, control 5 μg/mL human holo-transferrin.

For `[Cl][Fe]([Cl])[Cl].c1ccc(Nc2ccccn2)nc1` [2,2-Dipyridylamine•Ferric Chloride], the “mean percentage of control growth” value in experiment [1] (setting [5]) is given as 118 percentage of control growth; in experiment [1] (setting [6]), 96 percentage of control growth; in experiment [1] (setting [7]) it was 101 percentage of control growth; in experiment [3] (setting [8]), 40 percentage of control growth; in experiment [3] (50 μM) it was 48 percentage of control growth; in experiment [3] (100 μM), 65 percentage of control growth. Moreover, in experiment [2], the “β-galactosidase activity; D-MEM used for complexing, Test media to re-suspend cells” value (“β-galactosidase activity; D-MEM used” below) is recorded as 347 nanograms of β-galactosidase per 2×10^6 cells. Besides, the “β-galactosidase activity; Test Media used for complexing and to re-suspend cells” value in experiment [2] is recorded as 459 nanograms of β-galactosidase per 2×10^6 cells.
As for `Cc1occc(=O)c1O` [3-Hydroxy-2-Methyl-4-Pyrone (Maltol), 3-Hydroxy-2-Methyl-4-Pyrone], the “mean percentage of control growth” value in experiment [1] (setting [5]) is given as 0 percentage of control growth; in experiment [1] (setting [6]) it was 28 percentage of control growth; in experiment [1] (setting [7]), 81 percentage of control growth; in experiment [4] (setting [8]), 0 percentage of control growth; in experiment [4] (50 μM), 0 percentage of control growth; in experiment [4] (100 μM), 0 percentage of control growth. Also, the “β-galactosidase activity; D-MEM used” value in experiment [2] is given as 103 nanograms of β-galactosidase per 2×10^6 cells. Further, the “β-galactosidase activity; Test Media used for complexing and to re-suspend cells” value in experiment [2] is 52 nanograms of β-galactosidase per 2×10^6 cells.
Regarding `[Cl][Fe]([Cl])[Cl]` [Ferric Chloride, reference compound], the “mean percentage of control growth” value in experiment [1] (setting [5]) is given as 87 percentage of control growth; in experiment [1] (setting [6]) it was 91 percentage of control growth; in experiment [1] (setting [7]), 109 percentage of control growth; in experiment [4] (setting [8]), 55 percentage of control growth; in experiment [4] (50 μM), 73 percentage of control growth; in experiment [4] (100 μM), 74 percentage of control growth. Moreover, the “mean percentage of control growth” value was 56 percentage of control growth in experiment [3] (setting [8]), 85 percentage of control growth in experiment [3] (50 μM) and 101 percentage of control growth in experiment [3] (100 μM). In addition, in experiment [2], the “β-galactosidase activity; D-MEM used” value is listed as 18 nanograms of β-galactosidase per 2×10^6 cells. The “β-galactosidase activity; Test Media used for complexing and to re-suspend cells” value in experiment [2] is 0 nanograms of β-galactosidase per 2×10^6 cells.
On to `O=S(=O)([O-])[O-].[Fe+2]` [Ferrous Sulfate, reference compound], for which the “mean percentage of control growth” value in experiment [1] (setting [5]) is on record as 71 percentage of control growth; in experiment [1] (setting [6]) it was 60 percentage of control growth; in experiment [1] (setting [7]), 41 percentage of control growth; in experiment [4] (setting [8]), 91 percentage of control growth; in experiment [4] (50 μM), 103 percentage of control growth; in experiment [4] (100 μM), 94 percentage of control growth. In addition, the “mean percentage of control growth” value in experiment [3] (setting [8]) is 88 percentage of control growth; in experiment [3] (50 μM), 79 percentage of control growth; in experiment [3] (100 μM) it was 38 percentage of control growth. In addition, the “β-galactosidase activity; D-MEM used” value in experiment [2] is on record as 258 nanograms of β-galactosidase per 2×10^6 cells. In addition, in experiment [2], the “β-galactosidase activity; Test Media used for complexing and to re-suspend cells” value is on record as 406 nanograms of β-galactosidase per 2×10^6 cells.
As for Deferoxamine Mesylate•Ferric Chloride, the “mean percentage of control growth” value in experiment [1] (5 μM) is reported as 101 percentage of control growth; in experiment [1] (10 μM), 120 percentage of control growth; in experiment [1] (20 μM), 127 percentage of control growth; in experiment [4] (5 μM), 0 percentage of control growth; in experiment [4] (10 μM), 0 percentage of control growth; in experiment [4] (20 μM), 0 percentage of control growth. In addition, the “mean percentage of control growth” value in experiment [3] (5 μM) was 50 percentage of control growth; in experiment [3] (10 μM) it was 74 percentage of control growth; in experiment [3] (20 μM), 52 percentage of control growth. In experiment [2], the “β-galactosidase activity; D-MEM used” value was 154 nanograms of β-galactosidase per 2×10^6 cells. Besides, in experiment [2], the “β-galactosidase activity; Test Media used for complexing and to re-suspend cells” value was 301 nanograms of β-galactosidase per 2×10^6 cells.
Regarding “Ferrous Gluconate•Ascorbic Acid Phosphate”, the “mean percentage of control growth” value in experiment [1] (setting [5]) is 86 percentage of control growth; in experiment [1] (setting [6]) it was 109 percentage of control growth; in experiment [1] (setting [7]), 101 percentage of control growth; in experiment [4] (setting [8]), 92 percentage of control growth; in experiment [4] (50 μM) it was 94 percentage of control growth; in experiment [4] (100 μM), 93 percentage of control growth. Moreover, the “mean percentage of control growth” value in experiment [3] (setting [8]) is reported as 91 percentage of control growth; in experiment [3] (50 μM) it was 61 percentage of control growth; in experiment [3] (100 μM), 28 percentage of control growth. Also, the “β-galactosidase activity; D-MEM used” value in experiment [2] is listed as 116 nanograms of β-galactosidase per 2×10^6 cells. Moreover, the “β-galactosidase activity; Test Media used for complexing and to re-suspend cells” value in experiment [2] is recorded as 275 nanograms of β-galactosidase per 2×10^6 cells.
For the molecule Nitriloacetic Acid•Ferric Chloride, the “mean percentage of control growth” value in experiment [1] (setting [5]) was 100 percentage of control growth; in experiment [1] (setting [6]), 118 percentage of control growth; in experiment [1] (setting [7]) it was 74 percentage of control growth; in experiment [4] (setting [8]), 88 percentage of control growth; in experiment [4] (50 μM), 87 percentage of control growth; in experiment [4] (100 μM), 70 percentage of control growth. Further, the “mean percentage of control growth” value in experiment [3] (setting [8]) is reported as 127 percentage of control growth; in experiment [3] (50 μM), 107 percentage of control growth; in experiment [3] (100 μM), 107 percentage of control growth. Further, the “β-galactosidase activity; D-MEM used” value in experiment [2] is listed as 45 nanograms of β-galactosidase per 2×10^6 cells. Also, the “β-galactosidase activity; Test Media used for complexing and to re-suspend cells” value in experiment [2] is given as 33 nanograms of β-galactosidase per 2×10^6 cells.
